# Test results: patent publication US7531320B2, “Modulation of β-catenin/TCF-activated transcription” (priority 2003, dated 2009)
# Legend:
# [1] = molecular target: T1, β-catenin/CBP complex (Homo sapiens, UniProt Q92793); assay: Co-immunoprecipitation of β-catenin with CBP in SW480 cells; format: cell-based
# T1 construct: endogenous in cells; host or cells: SW480
# Method: FIG. 3. COMPOUND 1 disrupts the β-catenin/CBP complex but not the p300/β-catenin complex. • A. Full-length Xenopus laevis β-catenin (1.1, 2.2, and 3.3 μg) or murine CBP (0.14, 0.28, 0.55, 1.1, and 2.2 μg) plasmids were cotransfected in SW480 cells along with the β-catenin/TCF (1.1 μg) reporter gene construct. Empty pcDNA3 vector was used to equalize the amount of DNA used in each reaction. Dual luciferase assays were performed 24 hours post COMPOUND 1 treatment. All experiments were performed in duplicate and values plotted as means +/−standard deviation. • B. COMPOUND 1 competes with β-catenin for CBP. SW480 cells were treated with 5 or 10 μM of COMPOUND 1 or control (0.5% DMSO). 24 hours post treatment, lysates were incubated with beads coated with either control the antibody, or anti-CBP, or anti-p300 antibodies. Co-immunoprecipitated proteins were subjected to gel electrophoresis and immunoblotting using anti-β-catenin antibodies. The arrows point to the immunoprecipitated β-catenin (doublets). • C. CBP (1-111) is the minimal region of interaction with β-catenin. SW480 cells transfected with a CBP deletion series were subjected to immunoprecipitation using anti-β-catenin antibodies coated on Protein A-agarose beads. The immune complexes were washed and subjected to gel electrophoresis followed by immunoblotting using anti-His antibodies. […]
# [2] = test system: NFAT reporter construct; assay: NFAT reporter assay in stably transfected Jurkat cells; format: cell-based
# Method: FIG. 1. COMPOUND 1 inhibits β-catenin/TCF transcription. • A(i) and A(ii). Structures of COMPOUND 1, COMPOUND 2, COMPOUND 3, COMPOUND 4, and COMPOUND 5. • B(i) and B(ii). […] SW480 cells (10^5), (FIG. 1B(i)), were transfected with β-catenin/TCF luciferase construct. Cells were treated with COMPOUND 1 (1-64 μM). 24 hours post treatment lysates were prepared and subjected to dual luciferase assay. The data is represented in different form in FIG. 1B(ii). • C. COMPOUND 1 has no effect on NFAT reporter construct. Stably transfected Jurkat cells, right panel, with an NFAT reporter construct, were stimulated with PMA (10 ng/ml)/lonomycin (1 μg/ml), and treated with COMPOUND 1 (0.781-50 μM). 24 hours post treatment lysates were prepared and subjected to dual luciferase assay. All experiments were performed in duplicate and the values plotted as means +/−standard deviation. • D. CBP is the molecular target of COMPOUND 1. Nuclear extracts of SW480 cells were incubated with streptavidin-agarose beads coated with COMPOUND 2 (25 μM). Beads were washed 3 times and the eluted were subjected to gel electrophoresis and immunoblotting, with anti-CBP antibodies. […] The lysates were desalted using G-25 1 cc columns (Pharmacia) to remove the unbound ^14C-labeled-COMPOUND 1, and ^14C-labeled-COMPOUND 1 incorporation was measured.
# T1 sequence (Q92793 whole entry, one chain of several): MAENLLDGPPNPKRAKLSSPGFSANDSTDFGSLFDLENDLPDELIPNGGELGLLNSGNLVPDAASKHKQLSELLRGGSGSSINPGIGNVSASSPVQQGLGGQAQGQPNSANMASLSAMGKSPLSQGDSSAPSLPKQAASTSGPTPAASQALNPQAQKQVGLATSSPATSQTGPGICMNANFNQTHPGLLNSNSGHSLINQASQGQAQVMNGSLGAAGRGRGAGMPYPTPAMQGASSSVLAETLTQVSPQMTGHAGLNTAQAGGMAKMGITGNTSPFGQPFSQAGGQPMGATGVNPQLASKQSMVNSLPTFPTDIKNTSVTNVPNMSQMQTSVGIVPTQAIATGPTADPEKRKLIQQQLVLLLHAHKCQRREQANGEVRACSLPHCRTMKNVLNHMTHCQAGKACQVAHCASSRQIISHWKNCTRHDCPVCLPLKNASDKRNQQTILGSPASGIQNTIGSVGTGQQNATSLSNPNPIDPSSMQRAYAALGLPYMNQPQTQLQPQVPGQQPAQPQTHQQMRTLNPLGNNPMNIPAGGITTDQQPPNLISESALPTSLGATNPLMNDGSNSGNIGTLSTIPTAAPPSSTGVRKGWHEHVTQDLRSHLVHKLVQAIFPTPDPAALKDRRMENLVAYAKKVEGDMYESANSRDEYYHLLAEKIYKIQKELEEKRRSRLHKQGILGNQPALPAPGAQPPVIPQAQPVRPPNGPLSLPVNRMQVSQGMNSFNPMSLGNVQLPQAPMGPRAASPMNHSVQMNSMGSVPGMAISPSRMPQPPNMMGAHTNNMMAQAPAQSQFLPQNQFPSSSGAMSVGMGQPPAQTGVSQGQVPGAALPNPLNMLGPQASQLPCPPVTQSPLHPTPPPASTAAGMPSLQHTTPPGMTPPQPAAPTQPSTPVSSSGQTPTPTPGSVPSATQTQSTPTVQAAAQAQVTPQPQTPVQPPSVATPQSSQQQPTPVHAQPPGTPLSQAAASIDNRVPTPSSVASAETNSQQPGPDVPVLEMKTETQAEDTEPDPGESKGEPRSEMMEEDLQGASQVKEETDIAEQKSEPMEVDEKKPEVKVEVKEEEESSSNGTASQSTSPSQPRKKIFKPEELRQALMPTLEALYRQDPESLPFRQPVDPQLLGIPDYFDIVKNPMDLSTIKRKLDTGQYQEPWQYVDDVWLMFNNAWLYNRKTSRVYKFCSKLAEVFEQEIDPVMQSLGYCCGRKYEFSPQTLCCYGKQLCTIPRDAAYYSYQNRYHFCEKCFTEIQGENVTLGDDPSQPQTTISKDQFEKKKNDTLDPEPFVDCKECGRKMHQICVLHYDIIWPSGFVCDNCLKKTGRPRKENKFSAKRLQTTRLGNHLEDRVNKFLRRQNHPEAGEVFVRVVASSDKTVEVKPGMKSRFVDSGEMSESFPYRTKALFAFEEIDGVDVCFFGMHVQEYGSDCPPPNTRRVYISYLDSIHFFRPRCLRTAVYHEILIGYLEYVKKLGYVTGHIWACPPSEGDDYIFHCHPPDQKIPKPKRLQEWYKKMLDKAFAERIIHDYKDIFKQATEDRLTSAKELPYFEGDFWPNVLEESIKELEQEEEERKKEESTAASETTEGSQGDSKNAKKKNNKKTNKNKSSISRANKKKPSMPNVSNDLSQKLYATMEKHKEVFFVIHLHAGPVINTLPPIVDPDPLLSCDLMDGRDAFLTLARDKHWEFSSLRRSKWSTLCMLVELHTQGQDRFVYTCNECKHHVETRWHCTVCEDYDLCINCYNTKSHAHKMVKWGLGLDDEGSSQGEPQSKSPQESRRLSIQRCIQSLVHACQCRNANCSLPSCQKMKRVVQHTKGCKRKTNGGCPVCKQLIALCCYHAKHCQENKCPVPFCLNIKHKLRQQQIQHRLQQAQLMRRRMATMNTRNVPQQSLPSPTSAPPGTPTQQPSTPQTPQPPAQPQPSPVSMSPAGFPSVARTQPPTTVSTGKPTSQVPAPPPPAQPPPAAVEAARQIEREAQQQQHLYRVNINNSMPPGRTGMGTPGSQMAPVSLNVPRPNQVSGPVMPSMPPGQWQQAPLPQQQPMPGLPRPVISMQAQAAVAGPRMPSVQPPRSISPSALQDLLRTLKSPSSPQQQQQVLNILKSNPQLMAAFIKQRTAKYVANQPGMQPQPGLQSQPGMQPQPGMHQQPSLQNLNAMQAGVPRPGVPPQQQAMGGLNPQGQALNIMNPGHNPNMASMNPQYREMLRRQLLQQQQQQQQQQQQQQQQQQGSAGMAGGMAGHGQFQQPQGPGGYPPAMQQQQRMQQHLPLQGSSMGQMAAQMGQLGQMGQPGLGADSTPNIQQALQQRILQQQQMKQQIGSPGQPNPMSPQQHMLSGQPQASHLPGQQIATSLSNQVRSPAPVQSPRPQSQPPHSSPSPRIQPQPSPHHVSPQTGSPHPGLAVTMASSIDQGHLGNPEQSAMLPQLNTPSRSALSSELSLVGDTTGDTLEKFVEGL
smiles,measurement,setting,value
O=C1C(Cc2ccc(O)cc2)N2C(=O)CCN(C(=O)NCc3ccccc3)C2CN1Cc1cccc2ccccc12 (stereo not shown) [COMPOUND 1],CBP fragments binding to immunoprecipitated β-catenin in presence of excess COMPOUND 1,"[1]; CBP (1-111), (1-211), (1-351), 50 μM COMPOUND 1",dramatically competed away
same,Immunoprecipitation of β-catenin with CBP,"[1]; SW480 cells, 5 or 10 μM, 24 hours, concentration dependent",inhibited
same,Effect on NFAT reporter construct,"[2]; Jurkat cells, PMA/Ionomycin stimulated, 0.781-50 μM, 24 hours",no effect
same,Selectivity versus other CBP-dependent reporters,"[2]; including NFAT, CRE and AP-1 (CRE, AP-1 data not shown)",very good selectivity
